Patent US11214540B2, “Compositions for treating neurodegenerative diseases” (COGNITION THERAPEUTICS, INC., priority 2017, dated 2022)

How the values were obtained:
[1] = Mouse liver microsome (MLM) stability; format: in vitro ADME; conditions: microsomal stability in mouse liver microsomes (MLM)
Description: A first pharmacokinetic study was performed in microsomes of mice mouse liver microsomes, MLM).
Microsomal stability experiments and plasma stability experiments were performed to determine metabolic and hepatic stability of candidate compounds.

potassium channel hERG = potassium channel hERG (Homo sapiens (Human), UniProt Q12809); experiment: In vitro testing for hERG inhibition; format: biochemical; conditions: in vitro toxicity potassium channel hERG
Sequence of potassium channel hERG (Q12809 whole entry): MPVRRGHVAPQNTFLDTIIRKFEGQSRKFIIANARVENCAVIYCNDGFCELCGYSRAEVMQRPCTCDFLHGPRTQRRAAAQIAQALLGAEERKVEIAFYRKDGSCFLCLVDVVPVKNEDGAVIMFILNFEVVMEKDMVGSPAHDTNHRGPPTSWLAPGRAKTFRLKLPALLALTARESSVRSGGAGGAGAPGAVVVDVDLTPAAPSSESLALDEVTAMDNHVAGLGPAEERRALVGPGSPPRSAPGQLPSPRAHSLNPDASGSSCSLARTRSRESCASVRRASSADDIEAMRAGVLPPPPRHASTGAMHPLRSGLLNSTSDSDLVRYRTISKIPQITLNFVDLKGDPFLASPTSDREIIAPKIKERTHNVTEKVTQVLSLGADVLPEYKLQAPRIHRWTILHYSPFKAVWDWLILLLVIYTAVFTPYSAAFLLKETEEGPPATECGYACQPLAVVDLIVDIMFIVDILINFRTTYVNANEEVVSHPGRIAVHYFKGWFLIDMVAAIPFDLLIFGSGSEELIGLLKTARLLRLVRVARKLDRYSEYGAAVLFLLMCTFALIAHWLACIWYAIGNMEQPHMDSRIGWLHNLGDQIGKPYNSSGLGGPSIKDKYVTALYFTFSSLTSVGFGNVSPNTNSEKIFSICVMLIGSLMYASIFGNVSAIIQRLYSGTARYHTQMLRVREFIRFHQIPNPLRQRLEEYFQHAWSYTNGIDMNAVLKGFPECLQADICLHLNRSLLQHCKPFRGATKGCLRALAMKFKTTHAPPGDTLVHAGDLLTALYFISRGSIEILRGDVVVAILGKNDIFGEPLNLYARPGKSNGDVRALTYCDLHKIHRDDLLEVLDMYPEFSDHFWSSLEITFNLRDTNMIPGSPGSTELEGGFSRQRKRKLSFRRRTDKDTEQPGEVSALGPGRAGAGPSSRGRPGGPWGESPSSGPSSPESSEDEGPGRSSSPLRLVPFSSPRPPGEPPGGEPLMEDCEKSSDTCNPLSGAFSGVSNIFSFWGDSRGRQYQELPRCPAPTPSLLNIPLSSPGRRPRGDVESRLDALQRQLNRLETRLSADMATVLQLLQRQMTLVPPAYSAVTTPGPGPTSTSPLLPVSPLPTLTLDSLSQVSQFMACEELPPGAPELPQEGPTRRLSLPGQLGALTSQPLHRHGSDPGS
Description: In vitro testing for hERG inhibition was performed in a standard assay (See: Haverkamp W, Breithardt G, Carnm A J, Janse M J, Rosen M R, Antzelevitch C, Escande D, Franz M, Malik M, Moss A and Shah R. (2000) Eur Heat J 21 (15); 1216-31).

[2] = target: Sigma-2 receptors on membranes from rat cerebral cortex (Rattus norvegicus (Rat), UniProt Q5U3Y7); experiment: Competitive Radioligand Binding Assay 1, Sigma-2 binding ([3H]DTG displacement with (+)pentazocine mask); conditions: sigma-2 receptor affinity; read-out: S2 Ki
Sequence of Sigma-2 receptors on membranes from rat cerebral cortex (Q5U3Y7 whole entry): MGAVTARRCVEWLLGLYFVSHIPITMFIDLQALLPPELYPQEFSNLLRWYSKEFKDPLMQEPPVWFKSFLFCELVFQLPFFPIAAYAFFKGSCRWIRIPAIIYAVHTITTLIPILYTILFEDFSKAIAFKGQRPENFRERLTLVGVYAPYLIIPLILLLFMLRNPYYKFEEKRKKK
Description: Using the same protocol, some compounds for which membrane trafficking data are given in Table 1 were tested for recognition of sigma-2 receptor. Certain compounds preferentially bind to the sigma-2 receptor.
(§1) For Sigma-1 binding, various concentrations of test compounds from 100 μM to 1 nM were used to displace 8 nM [3H](+)pentazocine from endogenous receptors on Jurkat cell membranes (Ganapathy M E et al. 1991, J Pharmacol. Exp. Ther. 289:251-260). 10 μM Haloperidol was used to define non-specific binding. […] (Bowen W D, et al. 1993, Mol. Neuropharmcol 3:117-126). 10 μM Haloperidol was used to define non-specific binding. Reactions were terminated by rapid filtration through Whatman GF/C filters using a Brandel 12R cell harvester followed by two washes with ice-cold buffer. Radioactivity on the dried filter discs was measured using a liquid scintillation analyzer (Tri-Carb 2900TR; PerkinElmer Life and Analytical Sciences). The displacement curves were plotted and the Ki values of the test compounds for the receptor subtypes were determined using GraphPad Prism (GraphPad Software Inc., San Diego, Calif.). The percentage specific binding was determined by dividing the difference between total bound (disintegrations per minute) and nonspecific bound (disintegrations per minute) by the total bound (disintegrations per minute).
Affinities for Sigma-1 and Sigma-2 receptors are typically obtained from published studies using cerebral tissue homogenates with [3H](+)pentazocine to measure displacement from Sigma-1 receptors and [3H] 1,3-Di-(2-tolyl)guanidine in the presence of 300 nM (+)pentazocine to measure displacement from Sigma-2 receptors.

log P = format: physicochemical
Summary of the method: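 Ratio of un-ionized compound concentrations between octanol and water, with aqueous pH set so the un-ionized form predominates. Value given as the log of the octanol/water ratio.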

[3] = tested on: Abeta oligomer-induced membrane trafficking deficits in primary hippocampal neurons; experiment: Membrane Trafficking/Exocytosis (MTT) assay, Abeta oligomer effect on neurons; format: cell-based, rat; conditions: membrane trafficking; read-out: EC50 Abeta;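 further: compound potency for inhibiting the Abeta oligomer effect on exocytosis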
Summary of the method: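 Rat E18 hippocampal neurons cultured 3 weeks received compound (100 uM to 0.001 nM), then vehicle or Abeta 1-42 oligomers (3 μM total Abeta), for 1-24 h at 37 °C. MTT was added for 1 h, and formazan vesicle exocytosis was quantified by automated imaging with DAPI toxicity check. Tukey-Kramer comparisons were made with N=4.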

[4] = target: Sigma-1 receptors on Jurkat cell membranes (Homo sapiens (Human), UniProt Q99720); experiment: Competitive Radioligand Binding Assay 1, Sigma-1 binding ([3H](+)pentazocine displacement); conditions: sigma-1 receptor affinity; read-out: S1 Ki
Sequence of Sigma-1 receptors on Jurkat cell membranes (Q99720 whole entry): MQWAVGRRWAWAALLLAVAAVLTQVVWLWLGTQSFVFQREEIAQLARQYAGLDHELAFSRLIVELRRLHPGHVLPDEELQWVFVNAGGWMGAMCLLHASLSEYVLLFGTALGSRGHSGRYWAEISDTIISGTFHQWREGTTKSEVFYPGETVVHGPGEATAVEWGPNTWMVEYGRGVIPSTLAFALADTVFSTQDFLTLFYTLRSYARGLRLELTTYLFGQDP
Description: Certain compounds were tested for interaction with several receptors by blocking the binding or action of their agonists or antagonists. Some compounds were tested to see whether they interact directly with known cellular receptor or signaling proteins. Compounds can be tested for the ability to displace binding of known agonists or antagonists of a given human receptor that was overexpressed in cell lines or isolated from tissue. Compounds can also be tested for the ability to block downstream signaling induced by agonists or antagonists of a given human receptor. Compounds can be tested for action at 100 known receptors, and it is desirable that specific activity will occur at only a small subset of CNS-relevant receptors.
as §1, with “minute). […]” for “minute).”

SMILES | MLM T1/2 [1] | IC50 (potassium channel hERG) [µM] | Ki [2] [µM] | log P (log P) | EC50 [3] [µM] | Ki [4] [µM]
CC(C)=CC(CC(C)(C)c1ccc(Cl)cc1)N1CCC(C2CCOCC2)CC1 (centres unmarked) [Compound 11] | 26, min. | 1.5 | 0.0022 | 6.31 | 3 | –
CC(C)=CC(CCc1ccc(F)cc1)N1CCC(C2CCOCC2)CC1 (centres unmarked) [Compound 21] | 11 min | 0.83 | 0.0062 | 5.26 | 20 | 0.008
COCCCC1CCN(C(C=C(C)C)CC(C)(C)c2ccc(Cl)cc2)CC1 (centres unmarked) [Compound 23] | 8.2 min | 2.2 | 0.0092 | 6.49 | 0.95 | 0.14
CC(C)=CC(CC(C)(C)c1ccc(C(F)(F)F)cc1)N1CCC(CCO)CC1 (centres unmarked) [Compound 28] | 60 min | 10.2 | 0.018 | 5.68 | 4 | 0.0061
CC(C)=CC(CC(C)(C)c1ccc(Cl)cc1)N1CCC(C)(C)CC1 (centres unmarked) [Compound 31] | 21 min | 10.9 | 0.028 | 6.7 | 0.7 | 0.041
CC(C)=CC(CC(C)(C)c1ccc(C(F)(F)F)cc1)N1CCC(CO)CC1 (centres unmarked) [Compound 35] | 60 min | 13.4 | 0.039 | 5.31 | 20 | 0.056
CC(C)=CC(CC(C)(C)c1ccc(F)cc1)N1CCC2(CCOCC2)CC1 (centres unmarked) [Compound 36] | 25 min | 10 | 0.04 | 5.41 | 20 | 0.012
CC(C)=CC(CC(C)(C)c1ccc(C(F)(F)F)cc1)N1CCC(O)CC1 (centres unmarked) [Compound 38] | 84 min | 16.2 | 0.042 | 4.85 | 4.5 | 0.19
CC(C)=CC(CC(C)(C)c1ccc(Cl)cc1)N1CCC2(CCOCC2)CC1 (centres unmarked) [Compound 41] | 35 min | 4 | 0.067 | 5.87 | 1.6 | 0.016
CC(C)=CC(CCc1ccc(C)cc1)N1CCCCC1 (centres unmarked) [Compound 94] | 1.8 min | – | – | 5.43 | 20 | –
CC(C)=CC(CCc1ccc(Cl)cc1)N1CCOCC1 (centres unmarked) [Compound 95] | 1.5 min | – | – | 4.45 | 20 | –
CC(C)=CC(CCc1ccc(Cl)cc1)N1CCCCC1 (centres unmarked) [Compound 96] | 6.2 min | – | – | 5.52 | 1.6 | –
CC(C)=CC(CC(C)(C)c1ccc(C)cc1)N1CCC2(CCOCC2)CC1 (centres unmarked) [Compound 97] | 8.7 min | – | – | 5.78 | 10 | –
COc1ccc(C(C)(C)CC(C=C(C)C)N2CCC3(CCOCC3)CC2)cc1 (centres unmarked) [Compound 98] | 1.7 min | – | – | 5.11 | 20 | –
COc1ccc(C(C)(C)CC(C=C(C)C)NC2CCOCC2)cc1 (centres unmarked) [Compound 99] | 7.4 min | – | – | 4.08 | 20 | –
CC(C)=CC(CC(C)(C)c1ccc(C)cc1)NC1CCOCC1 (centres unmarked) [Compound 100] | 4.5 min | – | – | 4.75 | 13.6 | –
CC(C)=CC(CC(C)(C)c1ccc(C)cc1)NCCC1CCOCC1 (centres unmarked) [Compound 101] | 1.8 min | – | – | 5.57 | 9.6 | –
COc1ccc(C(C)(C)CC(C=C(C)C)NCCC2CCOCC2)cc1 (centres unmarked) [Compound 102] | 1.5 min | – | – | 4.9 | 20 | –
COc1ccc(CCC(C=C(C)C)N2CCCCC2)cc1 (centres unmarked) [Compound 103] | 1.1 min | – | – | 4.76 | 20 | –
COc1ccc(CCC(C=C(C)C)N2CCOCC2)cc1 (centres unmarked) [Compound 104] | 1.3 min | – | – | 3.69 | 20 | –
CC(C)=CC(CCc1ccc(Cl)cc1)N1CCC(C2CCOCC2)CC1 (centres unmarked) [Compound 105] | 1.3 min | – | – | 5.72 | 20 | –
COc1ccc(C(C)(C)CC(C=C(C)C)NCCCC2CCOCC2)cc1 (centres unmarked) [Compound 106] | 3.9 min | – | – | 5.35 | 20 | –
CC(C)=CC(CC(C)(C)c1ccc(C)cc1)N1CCC2(CC1)COC2 (centres unmarked) [Compound 107] | 3.5 min | – | – | 5.21 | 20 | –
COc1ccc(C(C)(C)CC(C=C(C)C)N(C)C2CCOCC2)cc1 (centres unmarked) [Compound 108] | 7.3 min | – | – | 4.46 | 20 | –
CC(C)=CC(CC(C)(C)c1ccc(C)cc1)N(C)C1CCOCC1 (centres unmarked) [Compound 109] | 5.4 min | – | – | 5.13 | 20 | –
COc1ccc(C(C)(C)CC(C=C(C)C)N(C)CCCC2CCOCC2)cc1 (centres unmarked) [Compound 110] | 2.6 min | – | – | 5.73 | 20 | –
CC(C)=CC(CC(C)(C)c1ccc(Cl)cc1)N(C)CC1CCOCC1 (centres unmarked) [Compound 111] | 6.8 min | – | – | 5.68 | 20 | –
COc1ccc(C(C)(C)CC(C=C(C)C)N(C)CC2CCOCC2)cc1 (centres unmarked) [Compound 113] | 8.2 min | – | – | 4.92 | 20 | –
